Assay results from patent US20100298141A1, “SUBSTITUTED PYRIDINE N-OXIDE HERBICIDES” (E. I. DU PONT DE NEMOURS AND COMPANY, priority 2007, published 2010).

Assays:
[1] = test system: barnyardgrass; experiment: Test A pre-/postemergence greenhouse test; assay type: in vivo, Echinochloa crus-galli; conditions: for Barnyardgrass plant response rating: 0 to 100 scale
In short: (§1)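 Visual injury ratings against untreated controls, taken roughly ten days after treatment in greenhouse. Plants were sprayed postemergence at one- to two-leaf stage (2–10 cm tall); at the same time, seeded loam/sand soil received a directed preemergence spray. Formulation: non-phytotoxic solvent mixture with surfactant.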

[2] = test system: crabgrass; experiment: Test A pre-/postemergence greenhouse test; assay type: in vivo, Digitaria sanguinalis; conditions: for Crabgrass, Large plant response rating: 0 to 100 scale
In short: as §1

[3] = test system: giant foxtail; experiment: Test A pre-/postemergence greenhouse test; assay type: in vivo, Setaria faberi; conditions: for Foxtail, Giant plant response rating: 0 to 100 scale
In short: as §1

[4] = test system: velvetleaf; experiment: Test A pre-/postemergence greenhouse test; assay type: in vivo, Abutilon theophrasti; conditions: for Velvetleaf plant response rating: 0 to 100 scale
In short: as §1

[5] = test system: blackgrass; experiment: Test C pre-/postemergence test; assay type: in vivo, Alopecurus myosuroides
In short: (§2)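 Test chemicals were formulated with surfactant in a non-phytotoxic solvent and sprayed both on freshly planted seeds (preemergence) and on 1- to 4-leaf plants of 2–18 cm (postemergence). Flooded-paddy pots received compound directly into 3 cm of standing water, maintained for the test.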

[6] = test system: downy brome; experiment: Test C pre-/postemergence test; assay type: in vivo, Bromus tectorum
In short: as §2

[7] = test system: green foxtail; experiment: Test C pre-/postemergence test; assay type: in vivo, Setaria viridis
In short: as §2

[8] = test system: catchweed bedstraw; experiment: Test C pre-/postemergence test; assay type: in vivo, Galium aparine
Description: Seeds of plant species selected from blackgrass (Alopecurus myosuroides), downy brome (Bromus tectorum), green foxtail (Setaria viridis), Italian ryegrass (Lolium multiflorum), wheat (Triticum aestivum), wild oat (Avena fatua), catchweed bedstraw (Galium aparine), Russian thistle (Salsola kali), […] (Cynodon dactylon), Surinam grass (Brachiaria decumbens), cocklebur (Xanthium strumarium), corn (Zea mays), crabgrass (Digitaria sanguinalis), woolly cupgrass (Eriochloa villosa), giant foxtail (Setaria faberii), Goosegrass (Eleusin indica), johnsongrass (Sorghum halepense), kochia (Kochia scoparia), lambsquarters (Chenopodium album), morningglory (Ipomoea coccinea), eastern black nightshade (Solanum ptycanthum), yellow nutsedge (Cyperus esculentus), pigweed (Amaranthus retroflexus), common ragweed (Ambrosia elation), soybean (Glycine max), common (oilseed) sunflower (Helianthus annuus), and velvetleaf (Abutilon theophrasti) were planted and treated preemergence with test chemicals formulated in a non-phytotoxic solvent mixture which included a surfactant. At the same time, plants selected from these crop and weed species and also winter barley (Hordeum vulgare), canarygrass (Phalaris minor), and chickweed (Stellaria media) were treated with postemergence applications of some of the test chemicals formulated in the same manner. Plants ranged in height from 2 to 18 cm (1- to 4-leaf stage) for postemergence treatments. […] At time of treatment, test pots were flooded to 3 cm above the soil surface, treated by application of test compounds directly to the paddy water, and then maintained at that water depth for the duration of the test. […] A dash (-) response means no test result.

[9] = test system: Surinam grass; experiment: Test C pre-/postemergence test; assay type: in vivo, Brachiaria decumbens; conditions: for Surinam Grass plant response rating: preemergence, scale 0 (no effect) to 100 (complete control)
In short: as §2

[10] = test system: woolly cupgrass; experiment: Test C pre-/postemergence test; assay type: in vivo, Eriochloa villosa
In short: as §2

[11] = test system: lambsquarters; experiment: Test C pre-/postemergence test; assay type: in vivo, Chenopodium album
In short: as §2

[12] = test system: pigweed; experiment: Test C pre-/postemergence test; assay type: in vivo, Amaranthus retroflexus
In short: as §2

[13] = test system: common ragweed; experiment: Test C pre-/postemergence test; assay type: in vivo, Ambrosia elation
In short: as §2

[14] = test system: soybean; experiment: Test C pre-/postemergence test; assay type: in vivo, Glycine max
In short: as §2

[15] = test system: barnyardgrass; experiment: Test C flooded paddy test; assay type: in vivo, Echinochloa crus-galli; conditions: Flood
In short: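 Flooded 3 cm over soil; compound into paddy water; depth kept constant. Greenhouse 13–15 d.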

[16] = Postemergence, 125 g ai/ha, 0 is no effect, 100 is complete control
[17] = Postemergence, 500 g ai/ha, 0 is no effect, 100 is complete control
[18] = Preemergence, 125 g ai/ha, 0 no effect, 100 complete control
[19] = Preemergence, 500 g ai/ha, 0 to 100 scale where 0 is no effect and 100 is complete control
[20] = 31 g ai/ha, Preemergence, scale 0 to 100
[21] = 62 g ai/ha, preemergence, scale 0 (no effect) to 100 (complete control)
[22] = preemergence, 125 g ai/ha, scale 0 (no effect) to 100 (complete control)

Cn1nc(C(F)(F)F)c(CS(=O)(=O)c2cccc[n+]2[O-])c1OC(F)F [Compound 4]
Barnyardgrass plant response rating [1, 16]: 70 | Barnyardgrass plant response rating [1, 17]: 80 | Barnyardgrass plant response rating [1, 18]: 70 | Plant response rating, Barnyardgrass [1, 19]: 100 | Crabgrass, Large plant response rating [2, 16]: 80 | Crabgrass, Large plant response rating [2, 17]: 80 | Crabgrass, Large plant response rating [2, 18]: 100 | Plant response rating, Crabgrass, Large [2, 19]: 100 | Foxtail, Giant plant response rating [3, 16]: 80 | Foxtail, Giant plant response rating [3, 17]: 90 | Foxtail, Giant plant response rating [3, 18]: 100 | Plant response rating, Foxtail, Giant [3, 19]: 100 | Velvetleaf plant response rating [4, 16]: 50 | Velvetleaf plant response rating [4, 17]: 80 | Velvetleaf plant response rating [4, 18]: 50 | Plant response rating, Velvetleaf [4, 19]: 90 | Blackgrass plant response rating [5, 20]: 70 | Blackgrass plant response rating [5, 21]: 80 | Plant response rating (0 to 100), Blackgrass ([5]; Preemergence, 250 g ai/ha): 100 | Blackgrass plant response rating [5, 22]: 95 | Bromegrass, Downy plant response rating [6, 20]: 0 | Bromegrass, Downy plant response rating [6, 21]: 0 | Plant response rating (0 to 100), Bromegrass, Downy ([6]; Preemergence, 250 g ai/ha): 70 | Bromegrass, Downy plant response rating [6, 22]: 0 | Foxtail, Green plant response rating [7, 20]: 100 | Foxtail, Green plant response rating [7, 21]: 100 | Plant response rating (0 to 100), Foxtail, Green ([7]; Preemergence, 250 g ai/ha): 100 | Foxtail, Green plant response rating [7, 22]: 100 | Galium plant response rating [8, 20]: 70 | Galium plant response rating [8, 21]: 90 | Plant response rating (0 to 100), Galium ([8]; Preemergence, 250 g ai/ha): 100 | Galium plant response rating [8, 22]: 100 | Surinam Grass plant response rating ([9]; 62 g ai/ha): 100 | Plant response rating (0 to 100), Surinam Grass ([9]; Preemergence, 250 g ai/ha): 100 | Surinam Grass plant response rating ([9]; 125 g ai/ha): 100 | Cupgrass, Woolly plant response rating [10, 20]: 60 | Cupgrass, Woolly plant response rating [10, 21]: 98 | Plant response rating (0 to 100), Cupgrass, Woolly ([10]; Preemergence, 250 g ai/ha): 100 | Cupgrass, Woolly plant response rating [10, 22]: 98 | Lambsquarters plant response rating [11, 20]: 0 | Lambsquarters plant response rating [11, 21]: 50 | Plant response rating (0 to 100), Lambsquarters ([11]; Preemergence, 250 g ai/ha): 100 | Lambsquarters plant response rating [11, 22]: 80 | Pigweed plant response rating [12, 20]: 100 | Pigweed plant response rating [12, 21]: 100 | Plant response rating (0 to 100), Pigweed ([12]; Preemergence, 250 g ai/ha): 100 | Pigweed plant response rating [12, 22]: 100 | Ragweed plant response rating [13, 20]: 70 | Ragweed plant response rating [13, 21]: 100 | Plant response rating (0 to 100), Ragweed ([13]; Preemergence, 250 g ai/ha): 100 | Ragweed plant response rating [13, 22]: 100 | Soybean plant response rating [14, 20]: 0 | Soybean plant response rating [14, 22]: 0 | Plant response rating, Barnyardgrass ([15]; 31 g ai/ha, scale 0 to 100 (0 no effect, 100 complete control)): 0 | Plant response rating, Barnyardgrass ([15]; 62 g ai/ha, scale 0 to 100, 0 no effect, 100 complete control, 13 to 15 days): 35 | Plant response rating, Barnyardgrass ([15]; 125 g ai/ha, scale 0 to 100, 0 no effect, 100 complete control, 13 to 15 days): 85 | Plant response rating, Barnyardgrass ([15]; 250 g ai/ha, scale 0 to 100 (0 no effect, 100 complete control)): 90
